Read-outs that look alike come from different tables or passages of the source.
Key:
[1] = test system: tissue nonspecific alkaline phosphatase (TNAP); conditions: relative expression of control without drugs = 1.0
[2] = target: human placental alkaline phosphatase (hPAP) (Homo sapiens, UniProt P05187); assay: Alkaline phosphatase inhibition assay; format: biochemical
human placental alkaline phosphatase (hPAP), sequence (P05187 23-535): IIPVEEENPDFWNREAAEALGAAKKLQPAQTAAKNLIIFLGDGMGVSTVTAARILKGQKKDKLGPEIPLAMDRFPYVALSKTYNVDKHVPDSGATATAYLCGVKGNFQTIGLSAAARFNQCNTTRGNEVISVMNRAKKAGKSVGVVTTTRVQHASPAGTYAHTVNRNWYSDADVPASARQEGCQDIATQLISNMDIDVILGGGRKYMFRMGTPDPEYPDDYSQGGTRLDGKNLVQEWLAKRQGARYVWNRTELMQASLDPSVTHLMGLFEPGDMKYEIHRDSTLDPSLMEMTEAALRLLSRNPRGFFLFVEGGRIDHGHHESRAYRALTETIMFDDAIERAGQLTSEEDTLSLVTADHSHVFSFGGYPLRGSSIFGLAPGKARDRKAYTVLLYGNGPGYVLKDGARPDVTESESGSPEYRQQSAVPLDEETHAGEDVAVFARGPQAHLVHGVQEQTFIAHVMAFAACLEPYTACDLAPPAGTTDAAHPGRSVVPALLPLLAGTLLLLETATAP

| Structure (SMILES) | TNAP Down-regulation ([1]; MCF-7, 10 μM) | IC50 [2] | TNAP Down-regulation ([1]; MCF-7, 5 μM) |
| --- | --- | --- | --- |
| c1ccc([C@H]2CN3CCSC3=N2)cc1 [Levamisole] | 0.26 fold | – | – |
| CC(C)(O)c1ccccc1CC[C@@H](SCC1(CC(=O)O)CC1)c1cccc(/C=C/c2ccc3ccc(Cl)cc3n2)c1 [Montelukast, (R,E)-2-(1-(((1-(3-(2-(7-chloroquinolin-2-yl)vinyl)phenyl)-3-(2-(2-hydroxypropan-2-yl)phenyl)propyl)thio)methyl)cyclopropyl) acetic acid] | – | 17.5 ± 0.19 µM | 0.27 fold |
